One assay concerns the target human S1P1 (Homo sapiens (Human), UniProt P21453). Kind of assay: GTPγS binding assay (scintillation proximity assay). To be noted: S1P1 membrane from CHO-K1 Gαqi5 cells expressing full-length human S1P1; GTPγ35S SPA. In kind it is biochemical. How it is done: S1P1 membrane is prepared from CHO-K1 Gαqi5 cells expression full-length human S1P1. Scintillation proximity assay (SPA) is performed by incubating membranes, GTPγ^35S, and compounds at various concentrations for 60 minutes. Wheat germ agglutinin-coated SPA beads are added and incubated for 60 minutes before centrifugation and scintillation counting.
On the technique in general: Binding of GTPγS marks nucleotide exchange on a G protein.

For another assay, the system named is lymphocyte count. Kind of assay: Lymphocyte count in mice. The assay is classed as in vivo. As to conditions: 10 mg/kg p.o., blood at 4 hr, FIG. 2. As to the method:
A total of 6 mice were used in this study for each compound (Examples 1-6) and divided in two groups as Group 1 (vehicle, Dose: 10 mL/kg) and Group 2 (Compound, Dose: 10 mg/kg, p.o.). Animals in Group 1 were administered with vehicle. Animals in Group 2 were administered with solution formulation of PTC1566-1 at 10 mg/kg dose through oral route. Blood samples from Group 2 were collected under light isoflurane anesthesia from a set of three mice at 1 & 4 hr (p.o.) and from Group 1 blood samples were collected at 4 hr. Plasma was harvested by centrifugation of blood and stored at −70° C. until analysis. Brain was collected at 4 hr from Group 2 animals, weighed and transferred in a poly-propylene tube. Two volumes of PBS buffer (pH 7.4) was added and homogenized to get final volume of 3 times and stored below −70° C. until bioanalysis. Blood sample at 4 hr from both groups were used for lymphocyte count. Analysis Plasma and Brain samples were quantified by fit-for-purpose LCMS/MS method (LLOQ: 4.91 ng/mL for plasma and 14.73 ng/g for brain). For each of the six compounds tested, plasma concentration was greater than 2600 ng/mL at 1 hr and greater than 2100 ng/mL at 4 hr. For each of the six compounds tested, brain concentration was less than 200 ng/g. For each of the six compounds tested (Compound 15, Compound 18, Compound 19, Compound 16, Compound 11, and Compound 13), the lymphocyte count was less than 45% of control (FIG. 2).

pEC50: −log10 of the molar value.

The term pEC50 denotes the negative decadic logarithm of the EC50, by convention in mol/L. A high value points to a small EC50.

Sequence of human S1P1 (P21453 whole entry): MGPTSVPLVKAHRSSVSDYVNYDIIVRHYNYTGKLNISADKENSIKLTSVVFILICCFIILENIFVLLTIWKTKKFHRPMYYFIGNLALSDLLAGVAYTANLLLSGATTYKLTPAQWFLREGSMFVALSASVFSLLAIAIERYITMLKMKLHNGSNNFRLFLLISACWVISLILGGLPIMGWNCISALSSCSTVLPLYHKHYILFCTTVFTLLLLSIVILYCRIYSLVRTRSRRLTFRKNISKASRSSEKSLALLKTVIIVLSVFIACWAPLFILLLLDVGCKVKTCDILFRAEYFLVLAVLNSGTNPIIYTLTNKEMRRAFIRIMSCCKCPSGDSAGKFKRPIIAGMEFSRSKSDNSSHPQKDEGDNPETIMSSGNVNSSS

Consider `O=C1CC[C@@H](COc2cc(Cl)c(-c3noc(-c4cn5cc(C(F)(F)F)cc(Cl)c5n4)n3)cc2Cl)N1` [Example 1, (S)-5-((2,5-dichloro-4-(5-(8-chloro-6-(trifluoromethyl)imidazo[1,2-a]pyridin-2-yl)-1,2,4-oxadiazol-3-yl)phenoxy)methyl)pyrrolidin-2-one], for which, on human S1P1, the pEC50 was over 6.00. The lymphocyte count entry with lymphocyte count was “less than 45 % of control”.
As to `O=C1CC[C@H](COc2cc(Cl)c(-c3noc(-c4cn5cc(C(F)(F)F)cc(Cl)c5n4)n3)cc2Cl)N1` [Example 3, (R)-5-((2,5-dichloro-4-(5-(8-chloro-6-(trifluoromethyl)imidazo[1,2-a]pyridin-2-yl)-1,2,4-oxadiazol-3-yl)phenoxy)methyl)pyrrolidin-2-one], in the assay with lymphocyte count, the lymphocyte count entry is on record as “less than 45 % of control”.
For `CN1C[C@@H](Oc2cc(Cl)c(-c3noc(-c4cn5cc(C(F)(F)F)cc(Cl)c5n4)n3)cc2Cl)CCC1=O` [Example 4, (S)-5-(2,5-dichloro-4-(5-(8-chloro-6-(trifluoromethyl)imidazo[1,2-a]pyridin-2-yl)-1,2,4-oxadiazol-3-yl)phenoxy)-1-methylpiperidin-2-one], the lymphocyte count result with lymphocyte count is recorded as “less than 45 % of control”.
Regarding `O=C1CC[C@@H](Oc2cc(Cl)c(-c3noc(-c4cn5cc(C(F)(F)F)cc(Cl)c5n4)n3)cc2Cl)CN1` [Example 5, (R)-5-(2,5-dichloro-4-(5-(8-chloro-6-(trifluoromethyl)imidazo[1,2-a]pyridin-2-yl)-1,2,4-oxadiazol-3-yl)phenoxy)piperidin-2-one], the pEC50 at human S1P1 was over 6.00. Besides, the lymphocyte count result in the assay on lymphocyte count is reported as “less than 45 % of control”.
For the compound `CN1C[C@H](Oc2cc(Cl)c(-c3noc(-c4cn5cc(C(F)(F)F)cc(Cl)c5n4)n3)cc2Cl)CCC1=O` [Example 6, (R)-5-(2,5-dichloro-4-(5-(8-chloro-6-(trifluoromethyl)imidazo[1,2-a]pyridin-2-yl)-1,2,4-oxadiazol-3-yl)phenoxy)-1-methylpiperidin-2-one], the pEC50 on human S1P1 is over 6.00. Moreover, in the assay on lymphocyte count, the lymphocyte count result is reported as “less than 45 % of control”.

(Values after patent publication US10683291B2, “Heterocyclic compounds for the treatment of disease” (OPPILAN PHARMA LTD., priority 2015, dated 2020).)
